Measured values taken from publication PMC6943664 (Molecules, 2019).
Where two headings read alike, the source gives them in different places.

Key:
human recombinant MAO B = target: T1, human recombinant MAO B (Homo sapiens, UniProt P27338); experiment: Human recombinant MAO B inhibition (kynuramine fluorescence); assay type: biochemical; conditions: for IC50: mean ±SEM of three independent experiments
T1 construct: purchased Sigma Aldrich, Milan, Italy
T1 sequence (P27338 1-520): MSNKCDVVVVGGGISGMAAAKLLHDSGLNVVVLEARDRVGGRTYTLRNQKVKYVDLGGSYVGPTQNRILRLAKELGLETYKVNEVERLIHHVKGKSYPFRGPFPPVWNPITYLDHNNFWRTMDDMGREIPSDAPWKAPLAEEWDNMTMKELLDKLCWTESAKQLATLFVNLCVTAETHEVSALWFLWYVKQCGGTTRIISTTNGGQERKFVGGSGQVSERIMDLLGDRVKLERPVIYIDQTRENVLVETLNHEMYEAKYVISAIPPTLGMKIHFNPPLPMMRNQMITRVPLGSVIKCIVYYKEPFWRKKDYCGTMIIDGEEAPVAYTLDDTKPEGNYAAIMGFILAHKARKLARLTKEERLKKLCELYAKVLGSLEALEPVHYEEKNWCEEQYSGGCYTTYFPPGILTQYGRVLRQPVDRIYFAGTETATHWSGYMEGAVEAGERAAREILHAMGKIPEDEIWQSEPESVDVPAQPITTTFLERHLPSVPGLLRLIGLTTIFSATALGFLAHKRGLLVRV
Experimental: (§1) In vitro enzymatic screening toward ChEs was carried out according to the known Ellman’s protocol, by using eeAChE and esBChE as highly homologous and cheaper surrogates for human enzymes. The enzyme inhibition assays on human MAOs were performed by applying already reported methods.
(§2) All enzymes and reagents were purchased from Sigma Aldrich, Milan, Italy. Inhibition of human recombinant MAO A and B was assayed by monitoring the fluorescence of 4-hydroxyquinoline produced from the oxidation of substrate kynuramine, following a previously published method. Acetylcholinesterase from electric eel and butyrylcholinesterase from equine serum were used in the Ellman’s spectrophotometric method as already described. In all cases, a 96-well plate procedure was used with an Infinite M1000 Pro plate reader (Tecan, Cernusco sul Naviglio, Italy). Inhibition values were determined as IC50 values by statistical analysis using Prism (GraphPad Prism version 5.00 for Windows, GraphPad Software, San Diego, CA, USA).

[1] = parameters: method as in PMID 19810674; conditions: cited from earlier work
human recombinant MAO A = target: T2, human recombinant MAO A (Homo sapiens, UniProt P21397); experiment: biochemical
T2 construct: purchased Sigma Aldrich, Milan, Italy
T2 sequence (P21397 1-527): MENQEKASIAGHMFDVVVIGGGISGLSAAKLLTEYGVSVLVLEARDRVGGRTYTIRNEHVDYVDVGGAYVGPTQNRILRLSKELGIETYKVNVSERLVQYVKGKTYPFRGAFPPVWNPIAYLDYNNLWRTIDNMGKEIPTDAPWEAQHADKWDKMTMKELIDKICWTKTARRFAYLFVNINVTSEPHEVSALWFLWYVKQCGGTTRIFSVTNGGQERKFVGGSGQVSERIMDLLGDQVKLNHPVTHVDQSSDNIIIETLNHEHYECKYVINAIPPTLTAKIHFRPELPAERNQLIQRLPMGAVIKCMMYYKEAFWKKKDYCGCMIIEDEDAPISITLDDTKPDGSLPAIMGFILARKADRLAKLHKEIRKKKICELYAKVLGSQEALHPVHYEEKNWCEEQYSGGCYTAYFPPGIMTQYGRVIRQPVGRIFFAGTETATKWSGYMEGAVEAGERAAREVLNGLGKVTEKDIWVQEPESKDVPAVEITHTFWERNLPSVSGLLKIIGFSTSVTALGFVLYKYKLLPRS
Experimental: as §1, §2

rat MAO B = tested on: rat MAO B; parameters: method as in PMID 19810674; conditions: cited from earlier work
[2] = target: T3, Acetylcholinesterase from electric eel (Electrophorus electricus, UniProt O42275); experiment: biochemical; assay type: biochemical; conditions: AChE from electric eel; mean ±SEM of three
T3 construct: purchased Sigma Aldrich, Milan, Italy
T3 sequence (O42275 24-633): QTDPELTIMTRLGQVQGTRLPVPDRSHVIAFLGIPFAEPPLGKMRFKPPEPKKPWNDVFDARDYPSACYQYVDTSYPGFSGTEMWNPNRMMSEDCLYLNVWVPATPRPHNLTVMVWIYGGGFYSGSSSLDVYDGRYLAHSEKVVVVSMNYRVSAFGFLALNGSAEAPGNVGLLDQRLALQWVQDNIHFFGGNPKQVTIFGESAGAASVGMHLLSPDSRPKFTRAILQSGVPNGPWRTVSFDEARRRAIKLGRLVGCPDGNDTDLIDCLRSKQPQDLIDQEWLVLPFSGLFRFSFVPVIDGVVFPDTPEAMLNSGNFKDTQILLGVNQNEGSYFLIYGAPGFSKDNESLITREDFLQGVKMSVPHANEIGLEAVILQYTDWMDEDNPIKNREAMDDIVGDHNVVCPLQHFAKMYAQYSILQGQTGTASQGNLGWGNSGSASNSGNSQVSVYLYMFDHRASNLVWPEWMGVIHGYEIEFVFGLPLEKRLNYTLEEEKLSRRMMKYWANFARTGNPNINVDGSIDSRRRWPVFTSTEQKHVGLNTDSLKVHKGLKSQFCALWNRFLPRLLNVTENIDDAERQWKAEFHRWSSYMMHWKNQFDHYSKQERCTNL
Experimental: as §1, §2

[3] = target: T4, butyrylcholinesterase from equine serum (Equus caballus, UniProt P81908); experiment: biochemical; assay type: biochemical; conditions: for inhibition at 10 µM: read-out: BChE % inhibition at 10 μM
T4 construct: butyrylcholinesterase from equine serum; purchased Sigma Aldrich, Milan, Italy; host or cells: equine serum
T4 sequence (P81908 whole entry): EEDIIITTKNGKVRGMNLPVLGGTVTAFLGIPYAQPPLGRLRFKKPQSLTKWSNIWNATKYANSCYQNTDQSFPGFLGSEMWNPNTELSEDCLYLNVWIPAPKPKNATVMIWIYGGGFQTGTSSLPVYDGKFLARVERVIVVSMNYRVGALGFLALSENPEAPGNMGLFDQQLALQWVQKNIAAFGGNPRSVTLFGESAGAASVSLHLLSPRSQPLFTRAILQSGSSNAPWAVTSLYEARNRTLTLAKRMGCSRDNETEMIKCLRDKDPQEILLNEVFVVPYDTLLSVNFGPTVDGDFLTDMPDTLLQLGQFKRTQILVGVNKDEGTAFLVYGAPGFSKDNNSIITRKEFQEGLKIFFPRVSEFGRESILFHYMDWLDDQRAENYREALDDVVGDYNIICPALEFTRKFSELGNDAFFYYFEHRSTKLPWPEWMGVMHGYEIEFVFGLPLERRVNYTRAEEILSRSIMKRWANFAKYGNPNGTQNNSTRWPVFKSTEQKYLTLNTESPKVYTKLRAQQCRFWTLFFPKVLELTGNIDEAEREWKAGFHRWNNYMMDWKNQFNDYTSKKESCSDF
Experimental: as §1, §2

CYP450s = tested on: CYP450s; parameters: method as in PMID 19810674; conditions: cited from earlier work
eeAChE = target: T5, eeAChE (Electrophorus electricus, UniProt O42275); experiment: Inhibition kinetics of eeAChE (Lineweaver-Burk); assay type: biochemical; conditions: for mechanism of inhibition toward eeAChE: Lineweaver–Burk plots; for Ki: eeAChE, inhibitor 0 to 5 μM, acetylthiocholine 33 to 200 μM
T5 construct: purchased Sigma Aldrich, Milan, Italy
T5 sequence (O42275 24-633): as the sequence (O42275 24-633) above
Experimental: as §2, with “Enzyme kinetics were used as tool for investigating the inhibition mechanism toward AChE. Compounds 8, bearing a meta-bromobenzyloxy substituent at coumarin C7, and 24, branched with a glycinamide chain as the variation at position 4, were chosen as prototypes bearing different head-or-tail modification schemes. […]. All” for “All”, “USA). […]” for “USA).”

[4] = human recombinant MAO, read-out: MAO B IC50
[5] = human recombinant MAO, mean ±SEM of three independent experiments, read-out: MAO A IC50

Row | Compound | IC50 (human recombinant MAO B; MAO B IC50, human recombinant MAO) [nM] | SI (MAO A/MAO B selectivity) (human recombinant MAO B; human MAOs) | blood–brain barrier penetration [1] | IC50 (human recombinant MAO A) [nM] | SI, IC50 MAO A/IC50 MAO B (rat MAO B; rat MAOs) | IC50 (rat MAO B; rat enzyme) [nM] | IC50 [2] [nM] | inhibition at 10 µM [3] [%] | CYP450s liability (CYP450s) | IC50 (human recombinant MAO B; [4]) [nM] | mechanism of inhibition toward eeAChE (eeAChE) | Ki (eeAChE) [nM] | IC50 (human recombinant MAO A; [5]) [nM] | IC50 ([3]; BChE from equine serum, mean ±SEM of three) [nM]
1 | CNCc1cc(=O)oc2cc(OCc3cccc(Cl)c3)ccc12 [compound 3, 7-[(3-chlorobenzyl)oxy]-4-[(methylamino)methyl]-2H-chromen-2-one] | 3.9 ± 0.8 | 167 | rapid | 650 ± 20 | 457 | 13 | 6200 ± 700 | 43 ± 5 | poor | – | – | – | – | –
2 | NC(=O)CNCc1cc(=O)oc2cc(OCc3cccc(Cl)c3)ccc12 [compound 24, N^2-({7-[(3-chlorobenzyl)oxy]-2-oxo-2H-chromen-4-yl}methyl)glycinamide] | – | – | – | – | – | – | 2200 ± 700 | 13 ± 2 | – | 61 ± 13 | mixed-type | 3630 | 77 ± 14 | –
3 | CNCc1cc(=O)oc2cc(OCc3cccc(Br)c3)ccc12 [compound 8, 7-[(3-bromobenzyl)oxy]-4-[(methylamino)methyl]-2H-chromen-2-one] | – | – | – | – | – | – | 2000 ± 40 | – | – | 2.2 ± 0.1 | mixed-type | 2910 | 2310 ± 40 | 2900 ± 400
